Some test systems named below: UACC-257 melanoma; RXF 393 renal; KM12 colon; SK-MEL-28 melanoma; HOP-62 NSCLC; PC-3 prostate; CCRF-CEM leukemia; MALME-3M melanoma; HOP-92 NSCLC; UACC-62 melanoma; SF-539 CNS; NCI/ADR-RES ovarian; M14 melanoma; NCI-H226 lung; LOX IMVI melanoma; SF-268 CNS.
Common to all, as to assay: NCI tumour cell line growth inhibition, 48 h

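A five-concentration, 48-hour dose response in 96-well plates underlies each endpoint, interpolated linearly between surrounding concentrations. The concentration for 50% growth inhibition is given as GI50. TGI: concentration producing complete growth inhibition.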 Where a SMILES comes first, the peptide text is derived from it. The star is where a group is joined. Cbz = O=C(OCc1ccccc1)*; Boc = CC(C)(C)OC(=O)*; tBu = CC(C)(C)*

Regarding `CC(OC(C)(C)C)C(NC(=O)C(CCCCNC(=O)OC(C)(C)C)NC(=O)C(Cc1c[nH]c2ccccc12)NC(=O)C(Cc1ccccc1)NC(=O)OCc1ccccc1)C(=O)NC(Cc1ccccc1)C(=O)O` (stereo not given) (Cbz-FWK(Boc)T(tBu)F-OH; configuration not given here), the TGI with UACC-257 melanoma, with RXF 393 renal, in the assay with KM12 colon, in the assay with SK-MEL-28 melanoma, with HOP-62 NSCLC and in the assay on PC-3 prostate was above 100 µM each time. The TGI was above 100 µM in the assay with CCRF-CEM leukemia; above 100 µM in the assay with MALME-3M melanoma; above 100 µM in the assay with HOP-92 NSCLC; 67.9 µM in the assay on UACC-62 melanoma; 59.9 µM with SF-539 CNS; above 100 µM in the assay with NCI/ADR-RES ovarian. Besides, the TGI in the assay with M14 melanoma, with NCI-H226 lung, in the assay on LOX IMVI melanoma and in the assay on SF-268 CNS was above 100 µM in each case.

As to `C/C=C(/C)C(=O)O[C@H]1C[C@@H]2[C@@H](O)c3occ(C)c3C[C@]2(C)[C@@H](C)C1`, the TGI with UACC-257 melanoma stood at 23.2 µM; in the assay with RXF 393 renal, 28.9 µM; in the assay on KM12 colon it was 30.2 µM; with SK-MEL-28 melanoma, 29.9 µM; in the assay with HOP-62 NSCLC it was 31.3 µM; in the assay with PC-3 prostate it was 35.2 µM. Further, the TGI in the assay with CCRF-CEM leukemia was 47.4 µM; in the assay with MALME-3M melanoma, 29.2 µM; in the assay with HOP-92 NSCLC it was 31.4 µM; in the assay with UACC-62 melanoma, 27.2 µM; in the assay on SF-539 CNS, 31.4 µM; in the assay with NCI/ADR-RES ovarian, 28.3 µM. Further, the TGI in the assay on M14 melanoma was determined as 29.9 µM; in the assay on NCI-H226 lung it was 29.2 µM; in the assay with LOX IMVI melanoma, 32.8 µM; in the assay on SF-268 CNS it was 31 µM.

`CCOC(=O)C1(C(=O)OCC)C[C@H](C)[C@](C)(O)C1`: the TGI in the assay on UACC-257 melanoma, in the assay with RXF 393 renal, in the assay with KM12 colon, with SK-MEL-28 melanoma, with HOP-62 NSCLC and in the assay on PC-3 prostate was above 100 µM throughout. Moreover, the TGI in the assay on CCRF-CEM leukemia, with MALME-3M melanoma, in the assay with HOP-92 NSCLC, with UACC-62 melanoma, with SF-539 CNS and in the assay on NCI/ADR-RES ovarian was above 100 µM each time. In addition, the TGI in the assay with M14 melanoma, in the assay with NCI-H226 lung, with LOX IMVI melanoma and with SF-268 CNS was above 100 µM in each case.

For `COc1ccccc1N1CCN(CCCN2/C(=C(\O)c3ccccc3)C(=O)c3c(C)cc(C)nc3S2(=O)=O)CC1`, the TGI in the assay on UACC-257 melanoma, in the assay on RXF 393 renal, with KM12 colon, in the assay with SK-MEL-28 melanoma, with HOP-62 NSCLC and in the assay with PC-3 prostate was above 100 µM throughout. Besides, the TGI in the assay on CCRF-CEM leukemia is above 100 µM; in the assay with MALME-3M melanoma, above 100 µM; with HOP-92 NSCLC, 98 µM; with UACC-62 melanoma, above 100 µM; in the assay on SF-539 CNS it was above 100 µM; in the assay on NCI/ADR-RES ovarian, above 100 µM. Also, the TGI in the assay with M14 melanoma was above 100 µM; in the assay with NCI-H226 lung, 87.9 µM; with LOX IMVI melanoma, 50 µM; with SF-268 CNS it was above 100 µM.

For the compound `O=C1CCCC2(c3ccccc3)Nc3ccccc3N12` (stereo not given), the TGI with UACC-257 melanoma, in the assay with RXF 393 renal, in the assay with KM12 colon, in the assay on SK-MEL-28 melanoma, with HOP-62 NSCLC and in the assay on PC-3 prostate was above 100 µM in each case. The TGI in the assay on CCRF-CEM leukemia, with MALME-3M melanoma, in the assay on HOP-92 NSCLC, with UACC-62 melanoma, in the assay with SF-539 CNS and in the assay with NCI/ADR-RES ovarian was above 100 µM in each case. Further, the TGI in the assay on M14 melanoma, with NCI-H226 lung, in the assay with LOX IMVI melanoma and in the assay on SF-268 CNS was above 100 µM in each case.

As to `COC(=O)CCc1cc(O)c2c(c1)C(C(=O)OC)C(c1ccc(O)c(O)c1)O2` (stereo not given), the TGI in the assay on UACC-257 melanoma is above 100 µM; in the assay with RXF 393 renal it was above 100 µM; with KM12 colon, above 46.5 µM; with SK-MEL-28 melanoma, above 100 µM; in the assay with HOP-62 NSCLC it was above 100 µM; with PC-3 prostate, above 100 µM. The TGI was above 48.7 µM with CCRF-CEM leukemia; above 100 µM with MALME-3M melanoma; above 100 µM with HOP-92 NSCLC; above 100 µM in the assay on UACC-62 melanoma; 32.9 µM in the assay on SF-539 CNS; above 100 µM with NCI/ADR-RES ovarian. The TGI with M14 melanoma is above 100 µM; with NCI-H226 lung it was above 75 µM; with LOX IMVI melanoma, above 100 µM; in the assay with SF-268 CNS, above 100 µM.

Consider `Cc1ccc(NC(=O)c2cccc(OP(=O)(O)Nc3ccc(C)cc3)c2)cc1`, for which the TGI in the assay with UACC-257 melanoma, in the assay with RXF 393 renal, in the assay with KM12 colon, with SK-MEL-28 melanoma, in the assay on HOP-62 NSCLC and in the assay on PC-3 prostate was above 100 µM in each case. For the same compound, the TGI in the assay with CCRF-CEM leukemia, in the assay with MALME-3M melanoma, with HOP-92 NSCLC, with UACC-62 melanoma, with SF-539 CNS and in the assay on NCI/ADR-RES ovarian was above 100 µM throughout. Also, the TGI in the assay with M14 melanoma, with NCI-H226 lung, with LOX IMVI melanoma and in the assay on SF-268 CNS was above 100 µM each time.

For the compound `CCNc1cc2c(cc1O)CC[C@@H]1[C@@H]2CC[C@]2(C)[C@@H](O)CC[C@@H]12`, the TGI was 25 µM in the assay with UACC-257 melanoma; 20.6 µM in the assay with RXF 393 renal; 22.4 µM in the assay on KM12 colon; 24.5 µM in the assay with SK-MEL-28 melanoma; 23.2 µM in the assay on HOP-62 NSCLC; 22.8 µM with PC-3 prostate. For the same compound, the TGI in the assay on CCRF-CEM leukemia was above 100 µM; in the assay with MALME-3M melanoma, 17.5 µM; in the assay with HOP-92 NSCLC, 22.4 µM; in the assay with UACC-62 melanoma it was above 35 µM; with SF-539 CNS, 15.5 µM; with NCI/ADR-RES ovarian, 20.9 µM. Moreover, the TGI in the assay with M14 melanoma amounted to 18.9 µM; in the assay with NCI-H226 lung, 21.6 µM; with LOX IMVI melanoma, 20.3 µM; in the assay on SF-268 CNS it was 37.9 µM. Further, the GI50 with HOP-62 NSCLC was 0.584 µM; in the assay with SF-539 CNS, 0.741 µM.

The values are drawn from PubChem BioAssay (NCI).
